Like-named read-outs stand apart in the source and are kept apart here.
Experiments:
snail = test: RT-PCR snail mRNA in U−2 OS cells; type: cell-based, human; conditions: 24 h
Procedure: (§1) Total RNA within cells was extracted by the RNAeasy™ Animal Long RNA Isolation Kit with Spin Column (Shanghai, Beyotime); the concentrations and OD260/OD280 and OD230/OD260 values were measured by NanoDrop. Five micrograms of RNA was used for reverse transcription; each sample was diluted to 16 μL, and 4 μL of synthesized premix solution (5×) was added, then the mixtures were placed in a 42 °C water bath for 10 min, then an 80 °C water bath for 10 min to deactivate reverse transcriptase. After reverse transcription, each sample was diluted to 140 μL. PCR amplification was carried out by the ABI700 real-time PCR system, and the amplification reaction was detected with a SYBR probe. After PCR, actin and GAPDH were used as internal references, and the relative standard curve method (2^−ΔΔcT) determined the relative expression of mRNA.

CD44 [1] = test: RNA-seq transcriptome, CD44 expression; type: cell-based, human; conditions: DS−1 6.25 µM, 24 h
Procedure: Sample preparation: U−2 OS cells were seeded in a 10 cm culture dish, and we cultured them to the logarithmic growth phase, suctioned the previous medium, and added new medium with DS−1 at 0 and 6.25 μM; each group was repeated two times. After 24 h of culture, the dish was washed with PBS reagent 3 times. One milliliter of TRIzol reagent was added to every dish for cell lysate and then collected in centrifuge tubes.
Transcriptome sequencing and analysis were carried out by Novogene Bioinformatics Technology Co., Ltd. (Beijing, China).
Raw data in the fastq format were firstly processed through in-house Perl scripts. In this step, clean data were obtained by removing reads containing adapter or containing ploy-N and low-quality reads from raw data. […]
Reference genome and gene model annotation files were downloaded from the genome website directly. The index of the reference genome was built using Hisat2 v2.0.5 (https://github.com/DaehwanKimLab/hisat2, accessed on 4 May 2022), and paired-end clean reads were aligned to the reference genome using Hisat2 v2.0.5. FeatureCounts v1.5.0-p3 (https://github.com/byee4/featureCounts, accessed on 4 May 2022) was used to count the reads numbers mapped to each gene. Then the Fragments PerKilobase of transcript sequence per Millions […] (FPKMs) of each gene were calculated based on the length of the gene and reads’ count mapped to this gene. […]

U−2 OS cells = test: MTT cell proliferation assay, U−2 OS cells; type: cell-based; conditions: Homo sapiens, U2OS
Procedure: The effects of tanshinones (DS−1 to DS−5) on the proliferation of U−2 OS cells, HeLa cells, and NRK−49F cells were measured by the classical MTT method with minor modifications as follows. Cells were seeded at 5000 per well in 96-well plates, with each group being repeated in 5 wells, and were incubated for 12 h. DS−1 to DS−5 were added at gradient concentrations, then incubated for 24 and 48 h, respectively. Then, 20 μL MTT solution (solved in PBS, 5 mg/mL) was added to every well, and the cells were further incubated at 37 °C for 4 h until a purple precipitate was visible. The plate was centrifuged at 1000 rpm for 1 min; the supernatant was suctioned, and 150 μL of DMSO was added per well; the plate was shaken on a shaker protected from light for 15 min. We placed the plate in an enzyme marker and measured the absorbance values at a 490 nm wavelength.

CD44 [2] = test: CD44 expression by immunofluorescence; type: cell-based, human; conditions: DS−1 2.5, 5.0, and 7.5 µM for 24 h
Procedure: Figure 7 DS−1 enhanced U−2 OS cells’ adhesion. (A) The morphological changes of U−2 OS cells treated with/without DS−1. Cells were treated with 0 and 7.5 μM DS−1 for 24 h, washed with PBS, and digested with trypsin at 25 °C under a microscope, and photos were taken every 30 s. The percentages of digested cells are recorded in (B). (C) Heatmap of genes related to the adherens’ junction in the control group and DS−1 group. (D) U−2 OS cells were treated with 0 and 7.5 μM DS−1 for 24 h, and the expression of CD44 was observed by immunofluorescence. (E,F) CD44 and GAPDH were analyzed by Western blot and calculated by Image J. (G) The relative expression of 4 kinds of MT-MMPs was analyzed by the transcriptome, as shown in the heatmap. (H) After being treated with DS−1, the relative expression of MT-MMP-1 was verified by RT-PCR. Values are the average of three independent experiments, * p < 0.05, ** p < 0.01, *** p < 0.005.
Coverslip preparation: we cultured U−2 OS cells on sterile glass coverslips in 24-well plates and then treated them with DS−1 at different concentrations.
Fixation and staining: We washed the cells with PBS 3 times and fixed the cells with 200 μL 4% paraformaldehyde/PBS solution at 4 °C for 15 min. We then rinsed 3 times with PBS and permeabilized with 200 μL 0.2% TritonX-100 at room temperature for 30 min. […]

CXCL8 = test: RT-PCR CXCL8 mRNA in U−2 OS cells; type: cell-based, human; conditions: 24 h
Procedure: as §1

Cc1cccc2c3c(ccc12)C1=C(C(=O)C3=O)[C@@H](C)CO1 [DS−1, 15,16-Dihydrotanshinone I]
snail mRNA, fold of the control group (snail; DS−1 5.0 µM): 0.46 ± 0.05 fold
snail mRNA, fold of the control group (snail; DS−1 7.5 µM): 0.39 ± 0.03 fold
upregulation of CD44 in transcriptome (CD44 [1]): 2.94 ± 0.55 fold
IC50 (U−2 OS cells; 24 h, read-out: IC50 U−2 OS cells (24 h)): 3830 ± 490 nM
IC50 (U−2 OS cells; 48 h, read-out: IC50 U−2 OS cells (48 h)): 1990 ± 370 nM
CD44 expression (CD44 [2]): significantly increased
CXCL8 mRNA, fold (CXCL8; DS−1 2.5 µM): 1.49 ± 0.10 fold
CXCL8 mRNA, fold (CXCL8; DS−1 5.0 µM): 3.34 ± 0.49 fold
CXCL8 mRNA, fold (CXCL8; DS−1 7.5 µM): 3.71 ± 0.53 fold
